The values that follow are results of earlier work, collected in patent publication US20220265684A1, “COMPOSITIONS AND METHODS FOR TREATING ULCERATIVE COLITIS” (9 METERS BIOPHARMA, INC., priority 2021, published 2022).

For this data set the following is noted: after administration of 100 mg (1 tablet); Actarit PI.

Regarding `Nc1ccc(CC(=O)O)cc1` [4-APAA, 4-aminophenylacetic acid], the “AUC0-∞” value was 4.56 µg·h/mL and the maximum concentration (Cmax) was 2.24 µg/mL.
